Test results published in US11524966B1 (Valo Early Discovery, Inc., priority 2017, dated 2022).

Each molecule was assayed against T1, USP25 (USP25-His6, Boston Biochem E-546) (Homo sapiens, UniProt Q9UHP3) (assay: Ubiquitin-Rhodamine 110 Assay for USP25 Activity, Example A-2). Settings: Ub-Rh110 assay, Example A-2; read-out: USP25 A-2 IC50 range.
T1 construct: His6; purchased Boston Biochem E-546
T1 sequence (Q9UHP3 1-1055): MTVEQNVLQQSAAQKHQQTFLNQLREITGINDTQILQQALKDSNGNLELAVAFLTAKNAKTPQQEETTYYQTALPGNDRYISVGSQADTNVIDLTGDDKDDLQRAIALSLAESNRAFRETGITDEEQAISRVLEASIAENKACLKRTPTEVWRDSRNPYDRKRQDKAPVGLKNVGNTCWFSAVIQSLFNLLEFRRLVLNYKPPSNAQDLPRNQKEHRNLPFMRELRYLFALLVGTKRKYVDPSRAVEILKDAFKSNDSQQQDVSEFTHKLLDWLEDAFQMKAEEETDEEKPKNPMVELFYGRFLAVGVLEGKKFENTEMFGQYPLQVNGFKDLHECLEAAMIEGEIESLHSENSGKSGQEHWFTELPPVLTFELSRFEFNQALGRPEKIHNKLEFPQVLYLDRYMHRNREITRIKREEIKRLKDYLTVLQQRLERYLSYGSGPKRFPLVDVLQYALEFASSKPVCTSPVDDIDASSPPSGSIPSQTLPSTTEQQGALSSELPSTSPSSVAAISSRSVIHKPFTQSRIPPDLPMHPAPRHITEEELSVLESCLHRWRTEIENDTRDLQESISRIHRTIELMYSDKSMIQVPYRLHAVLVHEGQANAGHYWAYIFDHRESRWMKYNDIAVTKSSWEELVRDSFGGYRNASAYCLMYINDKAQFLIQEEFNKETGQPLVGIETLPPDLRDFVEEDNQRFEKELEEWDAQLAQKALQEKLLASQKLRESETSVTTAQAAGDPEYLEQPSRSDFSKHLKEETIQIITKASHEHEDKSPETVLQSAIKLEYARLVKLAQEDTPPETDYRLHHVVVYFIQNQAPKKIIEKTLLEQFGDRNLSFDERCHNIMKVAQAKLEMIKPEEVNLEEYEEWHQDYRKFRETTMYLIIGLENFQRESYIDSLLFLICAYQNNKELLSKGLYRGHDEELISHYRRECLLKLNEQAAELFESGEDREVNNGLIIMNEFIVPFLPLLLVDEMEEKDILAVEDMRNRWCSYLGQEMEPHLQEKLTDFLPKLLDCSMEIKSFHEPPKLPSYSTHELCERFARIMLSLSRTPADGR
Assay type: biochemical
Protocol: The assay was performed in a final volume of 9 μL in assay buffer containing 20 mM Tris-HCl (pH 8.0, (1M Tris-HCl, pH 8.0 solution; Corning 46-031-CM)), 3 mM BME (2-Mercaptoethanol; Sigma 63689-25ML-F), 0.03% BGG (0.22 μM filtered, Sigma, G7516-25G), and 0.01% Triton X-100 (Sigma, T9284-10L). Nanoliter quantities of 10-point, 3-fold serial dilution in DMSO was pre-dispensed into 1536 assay plates (Corning, #3724BC) for a final test concentration of 25 μM to 1.3 nM, top to lowest dose, respectively. Enzyme USP25, construct USP25-His6, (Boston Biochem E-546). Concentration and incubation times were optimized for the maximal signal-to-background while maintaining initial velocity conditions at a fixed substrate concentration. The final concentration of the enzyme in the assay was 75 pM. Final substrate (Ub-Rh110; Ubiquitin-Rhodamine 110, R&D Systems #U-555) concentration was 25 nM with [Ub-Rh110]<<Km. 3 μL of 2× enzyme was added to assay plates (pre-stamped with compound) preincubated with […] for 30 minutes and then 3 μL of 2×Ub-Rh110 was added to assay plates. Plates were incubated for 45 minutes at room temperature before addition of 3 μL of stop solution (final concentration of 10 mM citric acid (Sigma, 251275-500G)). Fluorescence was read on the Envision (Excitation at 485 nm and Emission at 535 nm; Perkin Elmer) or on the PheraSTAR (Excitation at 485 nm and Emission at 535 nm; BMG Labtech).
IC50 values were determined by curve fitting of the standard 4 parameter logistic fitting algorithm included in the Activity Base software package: IDBS XE Designer Model 205. Data is fitted using the Levenburg Marquardt algorithm.

SMILES | IC50
Cc1nc2sc(C(=O)N[C@H]3COc4cc(N5CCNCC5)ccc4C3)c(N)c2s1 [Example 1-25, (R)-6-amino-2-methyl-N-(7-(piperazin-1-yl)chroman-3-yl)thieno[2,3-d]thiazole-5-carboxamide] | 200 to 2000 nM
Cc1nc2sc(C(=O)N[C@@H]3COc4cc(N5CCNCC5)ccc4C3)c(N)c2s1 [Example 1-26, (S)-6-amino-2-methyl-N-(7-(piperazin-1-yl)chroman-3-yl)thieno[2,3-d]thiazole-5-carboxamide] | > 2000 nM
Cc1ccc2c(N)c(C(=O)N[C@H]3COc4c(ccc(N5CCNCC5)c4F)C3)sc2n1 [Example 1-33, (R)-3-amino-N-(8-fluoro-7-(piperazin-1-yl)chroman-3-yl)-6-methylthieno[2,3-b]pyridine-2-carboxamide] | 50 to 200 nM
Cc1ccc2c(N)c(C(=O)N[C@@H]3COc4c(ccc(N5CCNCC5)c4F)C3)sc2n1 [Example 1-34, (S)-3-amino-N-(8-fluoro-7-(piperazin-1-yl)chroman-3-yl)-6-methylthieno[2,3-b]pyridine-2-carboxamide] | > 2000 nM
Cc1ccc2c(N)c(C(=O)N[C@H]3COc4cc(N5CCNCC5)c(F)cc4C3)sc2n1 [Example 1-35, (R)-3-amino-N-(6-fluoro-7-(piperazin-1-yl)chroman-3-yl)-6-methylthieno[2,3-b]pyridine-2-carboxamide] | 200 to 2000 nM
Cc1ccc2c(N)c(C(=O)N[C@@H]3COc4cc(N5CCNCC5)c(F)cc4C3)sc2n1 [Example 1-36, (S)-3-amino-N-(6-fluoro-7-(piperazin-1-yl)chroman-3-yl)-6-methylthieno[2,3-b]pyridine-2-carboxamide] | > 2000 nM
Cc1ccc2c(N)c(C(=O)N[C@H]3COc4cc(N5CC6CNCC(C5)C6(F)F)ccc4C3)sc2n1 [Example 2-1, 3-Amino-N-((3R)-7-(9,9-difluoro-3,7-diazabicyclo[3.3.1]nonan-3-yl)chroman-3-yl)-6-methylthieno[2,3-b]pyridine-2-carboxamide] | 1 to 50 nM
Cc1ccc2c(N)c(C(=O)N[C@H]3COc4cc(N5CC6CC(C5)N6)ccc4C3)sc2n1 [Example 2-2, N-((3R)-7-(3,6-diazabicyclo[3.1.1]heptan-3-yl)chroman-3-yl)-3-amino-6-methylthieno[2,3-b]pyridine-2-carboxamide] | 50 to 200 nM
Cc1ccc2c(N)c(C(=O)N[C@@H]3COc4cc(N5CC6CC(C5)N6)ccc4C3)sc2n1 [Example 2-3, N-((3S)-7-(3,6-diazabicyclo[3.1.1]heptan-3-yl)chroman-3-yl)-3-amino-6-methylthieno[2,3-b]pyridine-2-carboxamide] | > 2000 nM
Cc1ccc2c(N)c(C(=O)N[C@H]3COc4cc(N5CCNC[C@@H]5C)ccc4C3)sc2n1 [Example 2-4, 3-amino-6-methyl-N-((R)-7-((S)-2-methylpiperazin-1-yl)chroman-3-yl)thieno[2,3-b]pyridine-2-carboxamide] | 1 to 50 nM
Cc1ccc2c(N)c(C(=O)N[C@H]3COc4cc(N5CCNC[C@H]5C)ccc4C3)sc2n1 [Example 2-5, 3-amino-6-methyl-N-((R)-7-((R)-2-methylpiperazin-1-yl)chroman-3-yl)thieno[2,3-b]pyridine-2-carboxamide] | 1 to 50 nM
Cc1ccc2c(N)c(C(=O)N[C@H]3COc4cc(N5C6CCC5CNC6)ccc4C3)sc2n1 [Example 2-6, N-((3R)-7-(3,8-diazabicyclo[3.2.1]octan-8-yl)chroman-3-yl)-3-amino-6-methylthieno[2,3-b]pyridine-2-carboxamide] | 50 to 200 nM
Cc1ccc2c(N)c(C(=O)N[C@H]3COc4cc(N5CCCC56CNC6)ccc4C3)sc2n1 [Example 2-7, (R)-N-(7-(2,5-diazaspiro[3.4]octan-5-yl)chroman-3-yl)-3-amino-6-methylthieno[2,3-b]pyridine-2-carboxamide] | 200 to 2000 nM
Cc1ccc2c(N)c(C(=O)N[C@H]3COc4cc(N5CCN[C@@H](C)C5)ccc4C3)sc2n1 [Example 2-8, 3-amino-6-methyl-N-((R)-7-((S)-3-methylpiperazin-1-yl)chroman-3-yl)thieno[2,3-b]pyridine-2-carboxamide] | 200 to 2000 nM
Cc1ccc2c(N)c(C(=O)N[C@H]3COc4cc(N5CCN[C@H](C)C5)ccc4C3)sc2n1 [Example 2-9, 3-amino-6-methyl-N-((R)-7-((R)-3-methylpiperazin-1-yl)chroman-3-yl)thieno[2,3-b]pyridine-2-carboxamide] | 200 to 2000 nM
Cc1ccc2c(N)c(C(=O)N[C@H]3COc4cc(N5CCNCC56COC6)ccc4C3)sc2n1 [Example 2-10] | 50 to 200 nM
Cc1cnc2c(N)c(C(=O)N[C@H]3COc4cc(N5CC6CC(C5)N6)ccc4C3)sc2n1 [Example 2-11, N-((3R)-7-(3,6-diazabicyclo[3.1.1]heptan-3-yl)chroman-3-yl)-7-amino-3-methylthieno[2,3-b]pyrazine-6-carboxamide] | 50 to 200 nM
Cc1cnc2c(N)c(C(=O)N[C@H]3COc4cc(N5CC6COCC(C5)N6)ccc4C3)sc2n1 [Example 2-12, N-((3R)-7-(3-oxa-7,9-diazabicyclo[3.3.1]nonan-7-yl)chroman-3-yl)-7-amino-3-methylthieno[2,3-b]pyrazine-6-carboxamide] | 200 to 2000 nM
Cc1cnc2c(N)c(C(=O)N[C@H]3COc4cc(N5CC6CNCC(C5)O6)ccc4C3)sc2n1 [Example 2-13, N-((3R)-7-(9-oxa-3,7-diazabicyclo[3.3.1]nonan-3-yl)chroman-3-yl)-7-amino-3-methylthieno[2,3-b]pyrazine-6-carboxamide] | 200 to 2000 nM
Nc1c(C(=O)N[C@H]2COc3cc(N4CC5CC(C4)N5)ccc3C2)sc2nc(F)ccc12 [Example 2-14, N-((3R)-7-(3,6-diazabicyclo[3.1.1]heptan-3-yl)chroman-3-yl)-3-amino-6-fluorothieno[2,3-b]pyridine-2-carboxamide] | 200 to 2000 nM
Cc1nc2sc(C(=O)N[C@H]3COc4cc(N5CC6CC(C5)N6)ccc4C3)c(N)c2cc1F [Example 2-15, N-((3R)-7-(3,6-diazabicyclo[3.1.1]heptan-3-yl)chroman-3-yl)-3-amino-5-fluoro-6-methylthieno[2,3-b]pyridine-2-carboxamide] | 50 to 200 nM
COc1nc2sc(C(=O)N[C@H]3COc4cc(N5CCNCC5)ccc4C3)c(N)c2cc1F [Example 2-16, (R)-3-amino-5-fluoro-6-methoxy-N-(7-(piperazin-1-yl)chroman-3-yl)thieno[2,3-b]pyridine-2-carboxamide] | 200 to 2000 nM
Cc1cc(C)c2c(N)c(C(=O)N[C@H]3COc4cc(N5CCNCC5)ccc4C3)sc2n1 [Example 2-17, (R)-3-amino-4,6-dimethyl-N-(7-(piperazin-1-yl)chroman-3-yl)thieno[2,3-b]pyridine-2-carboxamide] | 50 to 200 nM
Cc1cc(C)c2c(N)c(C(=O)N[C@H]3COc4cc(N5CC6CC(C5)N6)ccc4C3)sc2n1 [Example 2-18, N-((3R)-7-(3,6-diazabicyclo[3.1.1]heptan-3-yl)chroman-3-yl)-3-amino-4,6-dimethylthieno[2,3-b]pyridine-2-carboxamide] | 50 to 200 nM
Cc1cc(C)c2c(N)c(C(=O)N[C@H]3COc4cc(N5CC6CNCC(C5)C6(F)F)ccc4C3)sc2n1 [Example 2-19, 3-amino-N-((3R)-7-(9,9-difluoro-3,7-diazabicyclo[3.3.1]nonan-3-yl)chroman-3-yl)-4,6-dimethylthieno[2,3-b]pyridine-2-carboxamide] | 1 to 50 nM
